Data as given in patent US8518869B2, “Pharmaceutical combined preparation containing a therapeutic protein” (Austria Wirtschaftsservice Gesellschaft m.b.H., priority 2004, dated 2013).

Tests used:
[1] = Text: It is understood that often arrangements must be made also for the storage of the preparation according to the invention so that said preparation will remain stable over an extended period of time. […] Hereby, it is possible to store the low-molecular thiol compound and the nitrosated protein of the preparation according to the invention both in combined and in separate form.
[2] = system: collagen-induced platelet aggregation; assay: collagen-induced platelet aggregation in human plasma rich in thrombocytes (aggregometer, method by Born); format: cell-based; details: 300 μmol/L, ~1 μg collagen/mL TRP
Description: The platelet aggregation was performed with human plasma rich in thrombocytes (TRP) in a Dual Kanal Chronolog Aggregometer basically according to the method by Born (1969). At the onset of each experiment, the exact dose of collagen was determined for the aggregation induced by collagen (˜1 μg collagen/mL TRP) (95-100% inhibition of the collagen-induced aggregation by 300 μmol/L of acetylsalicylic acid). […] After another minute, aggregation was induced with collagen. Control experiments with collagen alone were carried out after every second to third measurement. […] In experiments with different thiol- and non-thiol-containing substances (N-acetyl-L-cysteine, ascorbic acid, DL-homocysteine, taurine, L-cysteine), pre-incubation was effected primarily with those substances, in analogy to the trials using reduced glutathione.

Compound | pH-value at which stability in solution is greatest [1] | inhibition at 300 µM [2]
N[C@@H](CS)C(=O)O [L-cysteine] | < 7 | 
CC(=O)Oc1ccccc1C(=O)O [acetylsalicylic acid] |  | 95 to 100%
haemoglobin | 6 and 7 | 
